This passage reports CC50, EC50 and IC50 results from EP2147913A1, “Styrylquinolines, their process of preparation and their therapeutic uses” (BioAlliance Pharma, priority 2008, dated 2010).

Where two headings read alike, the source gives them in different places.

Data set [1] is described as follows: Viability assay (MTT cytotoxicity). It is filed as cell-based. To be noted: human; for CC50 at 48 h: hela-p4 cells, 2 days. Here is the method: The cytotoxicity of compounds was evaluated using un-infected and infected HeLa-P4 cell and CEM leukemia cells. CEM cell were obtained from the American Type Tissue Collection (Rockville, MD).
A serial dilution of drugs is done to evaluate the cytotoxicity concentration and is identified by CC50 (concentration of drug which induces 50% of cytotoxicity)
The HeLa-P4 was cultured in the presence or absence of compounds for 2 days. After this time period, cells were cultivated with MTT for 3 hours, further the medium is removed. And the lysis buffer is incubated for 1 hour, followed by plate reading at 540 nm in a microplate reader.

Data set [2] has as its system wild type HIV-1 virus (NL 4.3 strains). The data set is described as follows: Antiviral activity assay CEM cells. To be noted: Human immunodeficiency virus 1, CCRF-CEM. It is filed as cell-based. Here is the method: The activity is determined by infecting CEM cells with a wild type HIV-1 virus (NL 4.3 strains at 3ng) on cells in presence or absence of drugs.
A serial dilution of drugs is done to evaluate the EC50.
The effective concentration is the concentration of product at which virus replication is inhibited by 50 percent.
After 48 hours incubation, the quantification is done by the evaluation of the viral protein p24 with a commercial Elisa Kit. P24 is a protein essential to the replication virus cycle. The quantification of this enzyme is proportional to the amount of virus produced by the infected cells.

For data set [3] the test system is unchanged. The data set can be described thus: Antiviral activity assay on Hela P4 cells. The data set is classed as cell-based. To be noted: Human immunodeficiency virus 1, HeLaP4, 48 h, read-out: P4 IC50 (µM). Here is the method:
The antiviral activity is determined by infecting HelaP4 cells with a wild type HIV-1 virus (NL 4.3 strains at 3 ng) on cells in presence or absence of drugs.
A serial dilution of drugs is done to evaluate the EC50. The effective concentration is the concentration of product at which virus replication is inhibited by 50 percent.
After 48 hours incubation, the quantification is done by the evaluation of β-Galactosidase produced by the infected Hela P4 cells. The viral activity is evaluated by colorimetric assay, CPRG, followed by plate reading at 570 nm with a reference of 690 nm. The CPRG test is a colorimetric assay which allows to quantity the β-galactosidase produced by HIV-1 infected indicator cells (the β-Gal gene being under the control of the HIV-1 LTR).

Data set [4] deals with T1, HBX2 HIV integrase (Human immunodeficiency virus type 1 group M subtype B, UniProt P04585).
T1 construct: The pET-15b-IN plasmid contains the cDNA encoding the HBX2 HIV integrase; His tag (N, cleaved yes); made in house; host or cells: Escherichia coli BL21 (DE3)
The data set is described as follows: 3' LTR Processing Assay. It is filed as biochemical. Here is the method: (§1) The pET-15b-IN plasmid contains the cDNA encoding the HBX2 HIV integrase. His-tagged integrase protein was overexpressed in Escherichia coli BL21 (DE3) and purified under native conditions. Briefly, at an OD of 0.8, fusion protein expression was induced in bacterial cultures by the addition of IPTG (1 mM). Cultures were incubated for 3 h at […], after which cells were centrifuged. The cell pellet was resuspended in ice-cold buffer A [20 mM Tris-HCl (pH 8), 1 M NaCl, 4 mM β-mercaptoethanol, and 5 mM imidazole], treated with lysozyme for 1 h on ice, and sonicated. After centrifugation (30 min at 10 000 rpm), the supernatant was filtered (0.45 µm) and incubated for at least 2 h with Ni-NTA agarose beads (Pharmacia). The beads were washed twice with 10 volumes of buffer A, 10 volumes of buffer A with 50 mM imidazole, and 10 volumes of buffer A with 100 mM imidazole. His-tagged integrase was then eluted with buffer A supplemented with 50 µM ZnSO4 and 1 M imidazole. The integrase concentration was adjusted to 0.1 mg/mL in buffer A. The fusion protein was cleaved using thrombin and dialyzed overnight against 20 mM Tris-HCl (pH 8), 1 M NaCl, and 4 mM β-mercaptoethanol. After removal of biotinylated thrombin by incubation with streptavidin-agarose magnetic beads (Novagen, Madison, WI), a second dialysis was performed for 2 h against 20 mM Tris-HCl (pH 8), 1 M NaCl, 4 mM β-mercaptoethanol, and 20% (v/v) ethylene glycol. Fractions were aliquoted and rapidly frozen at -80°C.
(§2) Oligonucleotides U5B (5'-[…]-3'), U5B-2 (5'-GTGTGGAAAATCTCTAGCA-3'), U5A (5'-[…]-3') were purchased from Eurogentec (Liege, Belgium) and further purified on an 18% denaturing acrylamide/urea gel. For processing, strand transfer, 100 pmol of U5B, U5B-2, respectively, were radiolabeled using T4 polynucleotide kinase and 50 µCi of [γ-32P]ATP (3000 Ci/mmol). […]
Processing reaction was performed using U5A-U5B, in buffer containing 20 mM Tris (pH 7.2), 50 mM NaCl, 10 mM DTT, and 10mM MgCl2. […] Gels were analyzed using a STORM Molecular Dynamics phosphorimager and quantified with Image Quant™ 4.1 software.

The target of data set [5] is T1, HBX2 HIV integrase. The data set can be described thus: Strand Transfer Assay. The data set is classed as biochemical. On the procedure: as §1, §2
Processing, strand transfer reactions were performed using U5A-U5B-2, in buffer containing 20 mM Tris (pH 7.2), 50 mM NaCl, 10 mM DTT, 10mM MgCl2. […] Gels were analyzed using a STORM Molecular Dynamics phosphorimager and quantified with Image Quant™ 4.1 software.

The mark [6] stands for this setting: U5A-U5B substrate DNA 12.5 nM, IN 200 nM, 10mM MgCl2, up to 2 h at 37°C, read-out: Processing IC50.
Setting [7] is: U5A-U5B-2 substrate DNA 12.5 nM, IN 200nM, 10mM MgCl2, up to 2 h at 37°C, read-out: Transfert IC50.

Turning to `COc1cc(/C=C/c2ccc3ccc(C(=O)O)c(O)c3n2)cc(O)c1O` [FZ41, reference compound], the CC50 at 48 h in data set [1] (comparative example, read-out: Cytoto-IC50 IC50) was greater than 100 µM.

As for `O=C(O)c1ccc2ccc(/C=C/c3cc(O)c(O)c(Cl)c3)nc2c1O` [SQE41, (E)-2-(3-chloro-4,5-dihydroxystyryl)-8-hydroxyquinoline-7-carboxylic acid], the EC50 in data set [2] (CEM cells, NL 4.3, 48 hours, p24 Elisa, read-out: CEM) was 36 µM. Also, the values for the IC50 in data set [3], in data set [4] and in data set [5] were 5 µM, 280 nM and 280 nM, respectively. Also, the IC50 at 2 days in data set [1] (HeLa-P4 cells) was 22.5 µM.

As for `COc1cc(/C=C/c2ccc3ccc(Br)c(O)c3n2)cc(O)c1O` [SQE63], the EC50 in data set [2] (48 h, read-out: CEM (µM)) amounted to 2.8 µM. In addition, the IC50 in data set [3] came out at 0.82 µM; in data set [4] (setting [6]), 950 nM; in data set [5] (setting [7]), 950 nM. The CC50 at 48 h in data set [1] (read-out: Cytotoxicity IC50) came to 11.7 µM.

Consider `O=C(O)c1ccc2ccc(/C=C/c3cc(O)c(O)c([N+](=O)[O-])c3)nc2c1O` [SQE67], for which the EC50 in data set [2] (48 h, read-out: CEM (µM)) stood at 42 µM. The half-maximal inhibitory concentration (IC50) in data set [3] came out at 6.2 µM; in data set [4] (setting [6]), 150 nM; in data set [5] (setting [7]), 180 nM. Further, in data set [1] (read-out: Cytotoxicity IC50), the CC50 at 48 h worked out at 35 µM.

A word on the IC50: it is the midpoint of a concentration-inhibition curve.
